Measurements taken from patent US7553864B2, “Compounds for the treatment of inflammatory disorders and microbial diseases” (Schering Corporation, priority 2005, dated 2009).

Target: T1, ADMP (ADAMTS-4-5) (Homo sapiens, UniProt O75173)
T1 construct: purchased Calbiochem PF113
T1 sequence (O75173 213-837): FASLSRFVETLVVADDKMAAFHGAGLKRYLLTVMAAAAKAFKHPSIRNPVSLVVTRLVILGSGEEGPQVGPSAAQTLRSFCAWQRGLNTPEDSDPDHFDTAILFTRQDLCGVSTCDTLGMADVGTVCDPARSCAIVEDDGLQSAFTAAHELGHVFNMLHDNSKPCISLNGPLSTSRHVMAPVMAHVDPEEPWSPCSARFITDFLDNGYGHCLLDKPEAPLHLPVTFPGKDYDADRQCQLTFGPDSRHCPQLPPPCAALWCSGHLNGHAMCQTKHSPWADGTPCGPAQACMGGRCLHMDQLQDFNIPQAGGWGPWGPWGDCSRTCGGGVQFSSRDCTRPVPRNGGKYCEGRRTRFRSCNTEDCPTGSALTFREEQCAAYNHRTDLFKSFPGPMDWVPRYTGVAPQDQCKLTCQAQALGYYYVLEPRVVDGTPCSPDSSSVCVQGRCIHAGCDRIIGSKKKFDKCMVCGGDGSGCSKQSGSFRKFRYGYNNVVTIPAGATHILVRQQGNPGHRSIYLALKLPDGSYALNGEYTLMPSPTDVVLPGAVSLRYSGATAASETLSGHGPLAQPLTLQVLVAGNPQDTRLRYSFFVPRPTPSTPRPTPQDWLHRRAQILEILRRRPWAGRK
Assay: ADMP activity assay (procedures of WO00/05256)
Type: biochemical
Settings: read-out: IC50 rating (ADMP inhibitory activity)
From the text: The procedures of International Patent Publication WO00/05256 (published Feb. 3, 2000) were followed for detection of ADMP Activity and for measuring the IC50 of the compounds of the present invention. This was indicative of activity against a desintgrin and metallopropeinase thrombo spondin 4 and 5 (ADAMTS-4-5).
The enzyme was purchased commercially from Calbiochem (Cat# PF113) and the peptide substrate described in the patent was custom-ordered from AnaSpec.

Row | IC50 [nM] | Structure (SMILES)
1 | 1000 to 5000 | N[C@@H]1CCN(C(=O)[C@H](O)[C@@H](O)C(=O)NCc2ccc(C(F)(F)F)cc2)C1 [Compound 123]

System: LpxC enzyme
Assay: LpxC enzyme assay (RapidFire high-throughput mass spectrometry)
Type: biochemical
Settings: concentration 0.10 (unit not given)
How it was run: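 0.2 nM enzyme with 1.0 μM UDP-3-O-(R-3-hydroxymyristoyl)-N-acetylglucosamine in 25 mM HEPES pH 7.3, 150 mM NaCl, 2.0 mM DTT, 0.01% BSA, 2% DMSO; 60 min at room temperature, quenched with HCl. Substrate and product quantified by RapidFire mass spectrometry; percent conversion gives percent inhibition versus DMSO control.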

Row | Structure (SMILES) | LpxC enzyme assay rating (% inhibition at indicated concentrations)
2 | O=C(Nc1ccc(-n2cccn2)cc1)[C@H](O)[C@@H](O)C(=O)N1CCCC1 [Compound 75] | C (less than 10% inhibition)
3 | O=C(Nc1ccc(-c2cc[nH]n2)cc1)[C@H](O)[C@@H](O)C(=O)N1CCCC1 [Compound 76] | C (less than 10% inhibition)
4 | C[C@H](O)[C@@H](NC(=O)[C@H](O)[C@@H](O)C(=O)N(C)C)C(=O)Nc1ccc(C#Cc2ccccc2)cc1 [Compound 77] | C (less than 10% inhibition)
5 | C[C@@H](O)[C@H](NC(=O)[C@H](O)[C@@H](O)C(=O)N(C)C)C(=O)Nc1ccc(C#Cc2ccccc2)cc1 [Compound 78] | C (less than 10% inhibition)

Same assay, conditions: concentration 0.20 (unit not given)

Row | Structure (SMILES) | LpxC enzyme assay rating (% inhibition at indicated concentrations)
6 | O=C(Nc1ccc(-n2cccn2)cc1)[C@H](O)[C@@H](O)C(=O)N1CCCC1 [Compound 75] | C (less than 10% inhibition)
7 | O=C(Nc1ccc(-c2cc[nH]n2)cc1)[C@H](O)[C@@H](O)C(=O)N1CCCC1 [Compound 76] | C (less than 10% inhibition)
8 | C[C@H](O)[C@@H](NC(=O)[C@H](O)[C@@H](O)C(=O)N(C)C)C(=O)Nc1ccc(C#Cc2ccccc2)cc1 [Compound 77] | C (less than 10% inhibition)
9 | C[C@@H](O)[C@H](NC(=O)[C@H](O)[C@@H](O)C(=O)N(C)C)C(=O)Nc1ccc(C#Cc2ccccc2)cc1 [Compound 78] | C (less than 10% inhibition)

Same assay, conditions: concentration 0.39 (unit not given)

Row | Structure (SMILES) | LpxC enzyme assay rating (% inhibition at indicated concentrations)
10 | O=C(Nc1ccc(-n2cccn2)cc1)[C@H](O)[C@@H](O)C(=O)N1CCCC1 [Compound 75] | C (less than 10% inhibition)
11 | O=C(Nc1ccc(-c2cc[nH]n2)cc1)[C@H](O)[C@@H](O)C(=O)N1CCCC1 [Compound 76] | C (less than 10% inhibition)
12 | C[C@H](O)[C@@H](NC(=O)[C@H](O)[C@@H](O)C(=O)N(C)C)C(=O)Nc1ccc(C#Cc2ccccc2)cc1 [Compound 77] | C (less than 10% inhibition)
13 | C[C@@H](O)[C@H](NC(=O)[C@H](O)[C@@H](O)C(=O)N(C)C)C(=O)Nc1ccc(C#Cc2ccccc2)cc1 [Compound 78] | B (10-30% inhibition)

Same assay, conditions: concentration 0.78 (unit not given)

Row | Structure (SMILES) | LpxC enzyme assay rating (% inhibition at indicated concentrations)
14 | O=C(Nc1ccc(-n2cccn2)cc1)[C@H](O)[C@@H](O)C(=O)N1CCCC1 [Compound 75] | B (10-30% inhibition)
15 | O=C(Nc1ccc(-c2cc[nH]n2)cc1)[C@H](O)[C@@H](O)C(=O)N1CCCC1 [Compound 76] | C (less than 10% inhibition)
16 | C[C@H](O)[C@@H](NC(=O)[C@H](O)[C@@H](O)C(=O)N(C)C)C(=O)Nc1ccc(C#Cc2ccccc2)cc1 [Compound 77] | C (less than 10% inhibition)
17 | C[C@@H](O)[C@H](NC(=O)[C@H](O)[C@@H](O)C(=O)N(C)C)C(=O)Nc1ccc(C#Cc2ccccc2)cc1 [Compound 78] | C (less than 10% inhibition)

Same assay, conditions: concentration 1.56 (unit not given)

Row | Structure (SMILES) | LpxC enzyme assay rating (% inhibition at indicated concentrations)
18 | O=C(Nc1ccc(-n2cccn2)cc1)[C@H](O)[C@@H](O)C(=O)N1CCCC1 [Compound 75] | C (less than 10% inhibition)
19 | O=C(Nc1ccc(-c2cc[nH]n2)cc1)[C@H](O)[C@@H](O)C(=O)N1CCCC1 [Compound 76] | B (10-30% inhibition)
20 | C[C@H](O)[C@@H](NC(=O)[C@H](O)[C@@H](O)C(=O)N(C)C)C(=O)Nc1ccc(C#Cc2ccccc2)cc1 [Compound 77] | C (less than 10% inhibition)
21 | C[C@@H](O)[C@H](NC(=O)[C@H](O)[C@@H](O)C(=O)N(C)C)C(=O)Nc1ccc(C#Cc2ccccc2)cc1 [Compound 78] | C (less than 10% inhibition)

Same assay, conditions: concentration 3.13 (unit not given)

Row | Structure (SMILES) | LpxC enzyme assay rating (% inhibition at indicated concentrations)
22 | O=C(Nc1ccc(-n2cccn2)cc1)[C@H](O)[C@@H](O)C(=O)N1CCCC1 [Compound 75] | B (10-30% inhibition)
23 | O=C(Nc1ccc(-c2cc[nH]n2)cc1)[C@H](O)[C@@H](O)C(=O)N1CCCC1 [Compound 76] | C (less than 10% inhibition)
24 | C[C@H](O)[C@@H](NC(=O)[C@H](O)[C@@H](O)C(=O)N(C)C)C(=O)Nc1ccc(C#Cc2ccccc2)cc1 [Compound 77] | C (less than 10% inhibition)
25 | C[C@@H](O)[C@H](NC(=O)[C@H](O)[C@@H](O)C(=O)N(C)C)C(=O)Nc1ccc(C#Cc2ccccc2)cc1 [Compound 78] | B (10-30% inhibition)

Same assay, conditions: concentration 6.25 (unit not given)

Row | Structure (SMILES) | LpxC enzyme assay rating (% inhibition at indicated concentrations)
26 | O=C(Nc1ccc(-n2cccn2)cc1)[C@H](O)[C@@H](O)C(=O)N1CCCC1 [Compound 75] | B (10-30% inhibition)
27 | O=C(Nc1ccc(-c2cc[nH]n2)cc1)[C@H](O)[C@@H](O)C(=O)N1CCCC1 [Compound 76] | B (10-30% inhibition)
28 | C[C@H](O)[C@@H](NC(=O)[C@H](O)[C@@H](O)C(=O)N(C)C)C(=O)Nc1ccc(C#Cc2ccccc2)cc1 [Compound 77] | C (less than 10% inhibition)
29 | C[C@@H](O)[C@H](NC(=O)[C@H](O)[C@@H](O)C(=O)N(C)C)C(=O)Nc1ccc(C#Cc2ccccc2)cc1 [Compound 78] | B (10-30% inhibition)

Same assay, conditions: concentration 12.50 (unit not given)

Row | Structure (SMILES) | LpxC enzyme assay rating (% inhibition at indicated concentrations)
30 | O=C(Nc1ccc(-n2cccn2)cc1)[C@H](O)[C@@H](O)C(=O)N1CCCC1 [Compound 75] | C (less than 10% inhibition)
31 | O=C(Nc1ccc(-c2cc[nH]n2)cc1)[C@H](O)[C@@H](O)C(=O)N1CCCC1 [Compound 76] | C (less than 10% inhibition)
32 | C[C@H](O)[C@@H](NC(=O)[C@H](O)[C@@H](O)C(=O)N(C)C)C(=O)Nc1ccc(C#Cc2ccccc2)cc1 [Compound 77] | B (10-30% inhibition)
33 | C[C@@H](O)[C@H](NC(=O)[C@H](O)[C@@H](O)C(=O)N(C)C)C(=O)Nc1ccc(C#Cc2ccccc2)cc1 [Compound 78] | B (10-30% inhibition)

Same assay, conditions: concentration 25 (unit not given)

Row | Structure (SMILES) | LpxC enzyme assay rating (% inhibition at indicated concentrations)
34 | O=C(Nc1ccc(-n2cccn2)cc1)[C@H](O)[C@@H](O)C(=O)N1CCCC1 [Compound 75] | C (less than 10% inhibition)
35 | O=C(Nc1ccc(-c2cc[nH]n2)cc1)[C@H](O)[C@@H](O)C(=O)N1CCCC1 [Compound 76] | C (less than 10% inhibition)
36 | C[C@H](O)[C@@H](NC(=O)[C@H](O)[C@@H](O)C(=O)N(C)C)C(=O)Nc1ccc(C#Cc2ccccc2)cc1 [Compound 77] | A (greater than 30% inhibition)
37 | C[C@@H](O)[C@H](NC(=O)[C@H](O)[C@@H](O)C(=O)N(C)C)C(=O)Nc1ccc(C#Cc2ccccc2)cc1 [Compound 78] | A (greater than 30% inhibition)

Same assay, conditions: concentration 50 (unit not given)

Row | Structure (SMILES) | LpxC enzyme assay rating (% inhibition at indicated concentrations)
38 | O=C(Nc1ccc(-n2cccn2)cc1)[C@H](O)[C@@H](O)C(=O)N1CCCC1 [Compound 75] | B (10-30% inhibition)
39 | O=C(Nc1ccc(-c2cc[nH]n2)cc1)[C@H](O)[C@@H](O)C(=O)N1CCCC1 [Compound 76] | C (less than 10% inhibition)
